Experimental data taken from ChEMBL document CHEMBL5223091, “Targeting the Mitotic Kinesin KIF18A in Chromosomally Unstable Cancers: Hit Optimization Toward an In Vivo Chemical Probe” (J Med Chem, 2022).

How the values were obtained:
[1] = target: T1, Kinesin-like protein KIF18A (Homo sapiens, UniProt Q8NI77); experiment: Inhibition of recombinant His-tagged human KIF18A (1 to 467 residues) expressed in Trichoplusia ni insect cells assessed as inhibition of microtubule-stimulated ATPase activity preincubated for 30 mins followed by ATP addition and further incubated for 15 mins by ADP-Glo reagent based assay; set-up: species or system Insect cell
T1 sequence (Q8NI77 whole entry): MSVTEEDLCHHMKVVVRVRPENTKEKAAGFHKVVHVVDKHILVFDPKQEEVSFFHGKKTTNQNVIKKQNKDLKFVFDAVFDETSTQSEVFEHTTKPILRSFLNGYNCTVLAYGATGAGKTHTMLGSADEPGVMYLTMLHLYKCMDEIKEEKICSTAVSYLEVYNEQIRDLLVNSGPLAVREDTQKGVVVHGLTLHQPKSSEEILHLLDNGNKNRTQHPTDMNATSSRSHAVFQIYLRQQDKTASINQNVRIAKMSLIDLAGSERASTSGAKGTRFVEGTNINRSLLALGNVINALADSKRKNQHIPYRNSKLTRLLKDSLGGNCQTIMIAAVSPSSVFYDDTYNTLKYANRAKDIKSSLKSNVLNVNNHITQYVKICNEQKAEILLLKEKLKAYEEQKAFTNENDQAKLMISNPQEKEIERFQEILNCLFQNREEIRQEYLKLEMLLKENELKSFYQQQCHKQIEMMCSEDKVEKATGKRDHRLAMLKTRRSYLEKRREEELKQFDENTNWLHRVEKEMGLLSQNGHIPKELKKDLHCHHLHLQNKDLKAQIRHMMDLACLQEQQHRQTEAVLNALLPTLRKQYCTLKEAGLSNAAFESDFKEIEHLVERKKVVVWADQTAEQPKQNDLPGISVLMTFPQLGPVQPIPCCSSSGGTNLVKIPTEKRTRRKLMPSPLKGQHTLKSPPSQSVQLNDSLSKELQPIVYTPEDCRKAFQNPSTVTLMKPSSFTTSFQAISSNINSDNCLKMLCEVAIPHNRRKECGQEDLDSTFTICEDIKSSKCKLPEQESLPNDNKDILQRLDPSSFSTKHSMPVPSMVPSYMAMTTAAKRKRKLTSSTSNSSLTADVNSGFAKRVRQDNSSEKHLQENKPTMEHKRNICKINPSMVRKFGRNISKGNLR

[2] = Metabolic stability in mouse liver microsomes assessed as intrinsic clearance at 0.5 uM incubated upto 40 mins by LCMS analysis; format: ADME, Microsome; settings: read-out: CLH
[3] = Metabolic stability in human liver microsomes assessed as intrinsic clearance at 0.5 uM incubated upto 40 mins by LCMS analysis; format: ADME, Microsome; settings: read-out: CLH
OVCAR-3 [4] = experiment: Induction of mitotic arrest in human OVCAR-3 cells assessed as p-histone H3 incubated for 24 hrs by mitotic - imaging assay; format: functional, cell-based; settings: OVCAR-3, 24 h
OVCAR-3 [5] = experiment: Antiproliferative activity against human OVCAR-3 cells by nuclear count assay; format: functional, cell-based
[6] = Clearance in CD-1 mouse at 1 mg/kg, iv and 10 mg/kg, po; format: ADME, organism-based; settings: in vivo
[7] = Volume of distribution at steady state in CD-1 mouse at 1 mg/kg, iv and 10 mg/kg, po; format: ADME, organism-based; settings: in vivo
[8] = Half life in CD-1 mouse at 1 mg/kg, iv and 10 mg/kg, po; format: ADME, organism-based; settings: in vivo
[9] = Cmax in CD-1 mouse at 1 mg/kg, iv and 10 mg/kg, po; format: ADME, organism-based; set-up: dose 10 mg/kg, route po; settings: in vivo
[10] = Oral bioavailability in CD-1 mouse at 10 mg/kg; format: ADME, organism-based; settings: in vivo
[11] = Unbound fraction in plasma (unknown origin) by ultracentrifugation; format: ADME, cell-free
[12] = target: T2, Kinesin-like protein KIF11 (Homo sapiens, UniProt P52732); experiment: Inhibition of recombinant GST-tagged human Eg5 assessed as inhibition of microtubule-stimulated ATPase activity preincubated for 30 mins followed by ATP addition and further incubated for 15 mins by ADP-Glo reagent based assay
T2 sequence (P52732 whole entry): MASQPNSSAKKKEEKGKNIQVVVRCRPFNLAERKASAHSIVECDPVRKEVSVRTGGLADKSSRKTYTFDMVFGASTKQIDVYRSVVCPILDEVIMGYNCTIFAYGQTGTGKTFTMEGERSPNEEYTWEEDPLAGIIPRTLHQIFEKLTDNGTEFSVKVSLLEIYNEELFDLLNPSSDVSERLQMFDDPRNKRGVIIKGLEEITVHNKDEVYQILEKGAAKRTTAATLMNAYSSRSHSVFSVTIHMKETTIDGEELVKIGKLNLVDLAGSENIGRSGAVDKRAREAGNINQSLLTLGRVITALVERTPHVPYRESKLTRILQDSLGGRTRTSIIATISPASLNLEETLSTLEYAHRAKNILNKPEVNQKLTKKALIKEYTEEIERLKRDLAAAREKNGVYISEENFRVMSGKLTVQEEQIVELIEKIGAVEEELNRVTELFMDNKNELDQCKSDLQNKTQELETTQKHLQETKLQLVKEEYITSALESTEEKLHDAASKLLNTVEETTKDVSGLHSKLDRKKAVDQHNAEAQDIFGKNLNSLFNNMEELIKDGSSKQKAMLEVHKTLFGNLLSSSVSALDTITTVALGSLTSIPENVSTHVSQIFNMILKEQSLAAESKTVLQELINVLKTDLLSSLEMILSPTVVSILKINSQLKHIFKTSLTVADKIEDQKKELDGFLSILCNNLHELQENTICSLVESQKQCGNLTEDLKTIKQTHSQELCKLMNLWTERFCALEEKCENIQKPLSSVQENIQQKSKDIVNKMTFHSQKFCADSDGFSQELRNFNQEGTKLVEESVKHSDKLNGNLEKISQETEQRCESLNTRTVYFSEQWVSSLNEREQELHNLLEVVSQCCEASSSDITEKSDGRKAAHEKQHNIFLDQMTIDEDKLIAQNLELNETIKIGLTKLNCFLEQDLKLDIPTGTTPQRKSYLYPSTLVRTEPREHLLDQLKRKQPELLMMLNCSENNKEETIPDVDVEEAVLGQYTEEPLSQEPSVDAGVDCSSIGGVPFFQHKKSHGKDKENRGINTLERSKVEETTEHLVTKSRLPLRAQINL

[13] = target: Centromere-associated protein E (Homo sapiens, UniProt Q02224); experiment: Inhibition of recombinant GST-tagged human CENP-E assessed as inhibition of microtubule-stimulated ATPase activity preincubated for 30 mins followed by ATP addition and further incubated for 15 mins by ADP-Glo reagent based assay
Sequence of Centromere-associated protein E (Q02224 whole entry): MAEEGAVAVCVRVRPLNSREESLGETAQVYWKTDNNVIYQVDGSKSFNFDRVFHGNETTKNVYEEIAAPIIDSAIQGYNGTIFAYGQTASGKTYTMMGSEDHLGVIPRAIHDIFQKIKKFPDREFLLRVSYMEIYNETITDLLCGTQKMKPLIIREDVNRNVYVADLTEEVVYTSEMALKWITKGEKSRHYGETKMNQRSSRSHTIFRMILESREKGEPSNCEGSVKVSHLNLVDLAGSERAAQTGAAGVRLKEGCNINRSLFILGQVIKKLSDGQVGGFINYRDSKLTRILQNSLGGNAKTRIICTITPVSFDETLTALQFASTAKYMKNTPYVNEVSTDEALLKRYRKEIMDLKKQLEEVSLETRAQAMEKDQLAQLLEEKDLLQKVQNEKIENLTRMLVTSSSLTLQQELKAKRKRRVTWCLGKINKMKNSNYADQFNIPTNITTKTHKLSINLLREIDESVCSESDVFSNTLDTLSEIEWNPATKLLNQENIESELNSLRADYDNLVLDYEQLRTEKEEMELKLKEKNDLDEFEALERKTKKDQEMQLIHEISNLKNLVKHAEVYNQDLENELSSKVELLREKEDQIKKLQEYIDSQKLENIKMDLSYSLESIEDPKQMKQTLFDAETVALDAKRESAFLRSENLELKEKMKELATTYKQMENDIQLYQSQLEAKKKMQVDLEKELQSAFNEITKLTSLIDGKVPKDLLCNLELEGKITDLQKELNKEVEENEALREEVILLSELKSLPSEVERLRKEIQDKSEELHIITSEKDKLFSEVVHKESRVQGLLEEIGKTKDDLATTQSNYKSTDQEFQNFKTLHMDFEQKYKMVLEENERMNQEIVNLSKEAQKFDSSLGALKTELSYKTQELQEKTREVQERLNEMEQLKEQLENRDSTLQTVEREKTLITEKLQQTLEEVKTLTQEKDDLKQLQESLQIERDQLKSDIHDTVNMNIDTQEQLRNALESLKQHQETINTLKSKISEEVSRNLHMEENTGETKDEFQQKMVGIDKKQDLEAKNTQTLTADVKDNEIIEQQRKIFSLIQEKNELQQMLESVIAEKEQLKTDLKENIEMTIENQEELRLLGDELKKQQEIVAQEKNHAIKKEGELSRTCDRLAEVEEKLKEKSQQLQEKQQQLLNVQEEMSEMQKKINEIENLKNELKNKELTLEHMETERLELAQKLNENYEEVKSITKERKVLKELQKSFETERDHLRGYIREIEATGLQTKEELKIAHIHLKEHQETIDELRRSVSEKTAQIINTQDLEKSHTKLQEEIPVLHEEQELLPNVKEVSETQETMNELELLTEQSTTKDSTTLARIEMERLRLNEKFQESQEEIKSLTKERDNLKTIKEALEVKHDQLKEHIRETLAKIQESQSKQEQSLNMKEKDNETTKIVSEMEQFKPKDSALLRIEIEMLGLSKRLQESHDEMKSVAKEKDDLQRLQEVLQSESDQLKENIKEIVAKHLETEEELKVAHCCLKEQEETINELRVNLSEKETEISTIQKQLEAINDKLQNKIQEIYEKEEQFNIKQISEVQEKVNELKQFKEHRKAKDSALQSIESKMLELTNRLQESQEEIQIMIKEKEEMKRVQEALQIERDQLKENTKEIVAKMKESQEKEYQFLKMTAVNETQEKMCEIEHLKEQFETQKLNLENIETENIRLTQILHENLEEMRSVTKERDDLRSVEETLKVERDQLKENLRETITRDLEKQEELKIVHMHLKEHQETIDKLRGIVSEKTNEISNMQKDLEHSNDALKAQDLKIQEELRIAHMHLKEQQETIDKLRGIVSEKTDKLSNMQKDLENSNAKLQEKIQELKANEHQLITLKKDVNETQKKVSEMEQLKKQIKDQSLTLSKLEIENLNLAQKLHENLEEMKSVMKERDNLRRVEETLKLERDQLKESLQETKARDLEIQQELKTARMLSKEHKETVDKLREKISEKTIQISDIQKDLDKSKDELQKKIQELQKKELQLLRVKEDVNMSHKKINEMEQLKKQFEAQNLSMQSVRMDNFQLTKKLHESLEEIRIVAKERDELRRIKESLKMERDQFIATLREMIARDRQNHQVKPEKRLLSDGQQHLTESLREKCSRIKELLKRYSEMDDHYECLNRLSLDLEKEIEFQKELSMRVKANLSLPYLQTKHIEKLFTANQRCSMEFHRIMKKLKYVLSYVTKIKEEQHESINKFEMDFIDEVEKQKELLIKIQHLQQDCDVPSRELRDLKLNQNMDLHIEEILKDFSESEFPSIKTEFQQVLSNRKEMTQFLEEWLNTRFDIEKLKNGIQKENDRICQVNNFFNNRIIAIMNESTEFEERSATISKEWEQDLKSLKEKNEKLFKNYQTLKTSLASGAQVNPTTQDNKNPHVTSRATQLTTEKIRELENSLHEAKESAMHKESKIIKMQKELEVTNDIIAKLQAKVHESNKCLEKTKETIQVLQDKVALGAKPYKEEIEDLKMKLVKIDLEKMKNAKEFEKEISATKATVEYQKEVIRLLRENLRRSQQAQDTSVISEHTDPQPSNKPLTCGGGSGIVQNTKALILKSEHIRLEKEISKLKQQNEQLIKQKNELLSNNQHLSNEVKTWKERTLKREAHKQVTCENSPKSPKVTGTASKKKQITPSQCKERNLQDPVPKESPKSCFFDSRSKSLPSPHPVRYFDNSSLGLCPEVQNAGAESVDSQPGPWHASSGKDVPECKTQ

MDA-MB-157 = experiment: Induction of mitotic arrest in TP53 mutant human MDA-MB-157 cells assessed as multipolar spindle arrays by measuring pericentriolar material incubated for 24 hrs by mitotic index assay; format: functional, cell-based; settings: MDA-MB-157, 24 h
[14] = Cmax in CD-1 mouse xenografted with human OVCAR-3 cells at 100 mg/kg, ip by LC-MS/MS analysis; format: ADME, organism-based; set-up: dose 100 mg/kg, route ip; settings: in vivo
[15] = AUC (0 to 24 hrs) in CD-1 mouse xenografted with human OVCAR-3 cells at 100 mg/kg, ip by LC-MS/MS analysis; format: ADME, organism-based; set-up: dose 100 mg/kg, route ip; settings: in vivo
[16] = Plasma concentration in CD-1 mouse xenografted with human OVCAR-3 cells at 100 mg/kg, ip measured upto 24 hrs by LC-MS/MS analysis; format: ADME, organism-based
[17] = Unbound fraction in CD-1 mouse plasma xenografted with human OVCAR-3 cells at 100 mg/kg, ip by LC-MS/MS analysis; format: ADME, organism-based

SMILES	IC50 [1] [nM]	microsomal CLint at 0.5 µM [2] [µL/min/mg]	microsomal CLint at 0.5 µM [3] [µL/min/mg]	EC50 (OVCAR-3 [4]) [nM]	EC50 (OVCAR-3 [5]) [nM]	further results
O=C(Nc1cccc(S(=O)(=O)C2CCCC2)c1)c1cccnc1N1CCC(F)(F)CC1	5310	> 399	> 399	4630	4780	
O=C(Nc1cccc(S(=O)(=O)C2COC2)c1)c1cccnc1N1CCC2(CC1)CC2	8880	385	183	14800	12600	
CC1(C)CCN(c2ncccc2C(=O)Nc2cccc(S(=O)(=O)C3CCCC3)c2)CC1	1250	> 399	> 399	2720	2140	
O=C(Nc1cccc(S(=O)(=O)N2CCCC2)c1)c1cccnc1N1CCC2(CC1)CC2	1830	> 399	> 399	5460	4420	
O=C(Nc1cccc(S(=O)(=O)N2CCCCC2)c1)c1cn[nH]c1-c1ccc(Cl)cc1	520	> 399	255			IC50 [12]: > 100000 nM; IC50 [13]: > 100000 nM; IC50 (MDA-MB-157): 8800 nM
O=C(Nc1cccc(S(=O)(=O)NC2CC2)c1)c1cccnc1N1CCC2(CC1)CC2	580	> 399	> 399	2260	1790	
O=C(Nc1cccc(C2(C(F)(F)F)N=N2)c1)c1ccc(NS(=O)(=O)CCO)nc1N1CCC2(CC1)CC2	32					
CC(C)S(=O)(=O)c1cccc(NC(=O)c2cccnc2N2CCC3(CC2)CC3)c1	3150	> 399	375	4290	4480	
O=[N+]([O-])c1cc(Cl)ccc1S(=O)(=O)c1ccccc1	1700					
O=C(Nc1cccc(S(=O)(=O)C2CCCC2)c1)c1cccnc1N1CCCCC1	6160	> 399	> 399	6350	5030	IC50 [12]: > 100000 nM; IC50 [13]: > 100000 nM; IC50 (MDA-MB-157): 4800 nM

Further lines, with some results ahead:

IC50 [1] [nM]	microsomal CLint at 0.5 µM [2] [µL/min/mg]	microsomal CLint at 0.5 µM [3] [µL/min/mg]	EC50 (OVCAR-3 [4]) [nM]	EC50 (OVCAR-3 [5]) [nM]	SMILES	further results
135	76	74	190	110	CC(C)(C)NS(=O)(=O)c1cccc(NC(=O)c2ncc(NC(C)(C)CO)nc2N2CCC3(CC2)CC3)c1	CL [6]: 5 mL/min/kg; Vdss [7]: 0.7 L/kg; half-life [8]: 3.6 h; Cmax [9]: 2.43 µM; bioavailability [10]: 13%; fraction unbound [11]: 0.019
360	> 399	> 399	2660	2350	COc1ccc(C(=O)Nc2cccc(S(=O)(=O)C3CCCC3)n2)c(N2CCC3(CC2)CC3)c1	
320	> 399	> 399	1030	840	CC(C)(C)NS(=O)(=O)c1cccc(NC(=O)c2cccnc2N2CCC3(CC2)CC3)c1	
140	> 399	189	28	23	CC(C)(C)NS(=O)(=O)c1cccc(NC(=O)c2ccc(NC(C)(C)CO)cc2N2CCC3(CC2)CC3)n1	
80	> 399	> 399	48	32	CC(C)(CO)Nc1ccc(C(=O)Nc2cccc(S(=O)(=O)NC3CCCC3)n2)c(N2CCC3(CC2)CC3)c1	
92	> 399	> 399	177	117	O=C(Nc1cccc(S(=O)(=O)C2CCCC2)n1)c1ccc(NCCO)cc1N1CCC2(CC1)CC2	
31600	> 399	154	45800	31200	CC(C)(CO)S(=O)(=O)c1cccc(NC(=O)c2cccnc2N2CCC3(CC2)CC3)c1	
81	> 399	> 399	43	42	CC(C)(C)NS(=O)(=O)c1cccc(NC(=O)c2ccc(NC(C)(C)CO)nc2N2CCC3(CC2)CC3)n1	
	90	90	11	11	CC(C)(C)NS(=O)(=O)c1cccc(NC(=O)c2ccc(NS(=O)(=O)C3(C)CC3)cc2N2CCC3(CC2)CC3)c1	Cmax [14]: 26.5 µM; AUC(0-t) [15]: 269 µM·h; concentration at 24 h [16]: 0.8 µM; fraction unbound [17]: 0.015
165	> 399	> 399	228	229	CC(C)(O)CNc1ccc(C(=O)Nc2cccc(S(=O)(=O)C3CCCC3)n2)c(N2CCC3(CC2)CC3)c1	
253	> 399	> 399	449	358	CN(CCO)c1ccc(C(=O)Nc2cccc(S(=O)(=O)C3CCCC3)n2)c(N2CCC3(CC2)CC3)c1	
166	58	83	75	62	CC(C)(C)NS(=O)(=O)c1cccc(NC(=O)c2ccc(NC3(CO)CC3)cc2N2CCC3(CC2)CC3)n1	CL [6]: 5 mL/min/kg; Vdss [7]: 0.3 L/kg; half-life [8]: 1.5 h; Cmax [9]: 5.45 µM; bioavailability [10]: 22%; fraction unbound [11]: 0.011
